Assay results taken from PMC10214526, “Semisynthetic LC3 Probes for Autophagy Pathways Reveal a Noncanonical LC3 Interacting Region Motif Crucial for the Enzymatic Activity of Human ATG3” (ACS Central Science, 2023).

System: Ube2K
Assay: Reaction of Ubl probes with ubiquitin E2 Ube2K
Type: biochemical
Details: probe 15 μM, Ube2K 15 μM, 1 h, SDS-PAGE
Method: Figure 1 Modification of ATG3 with GABARAP ABPs depends on LIR^ATG3. a. Characterization of GABARAP activity-based probes, 1 and 2, obtained by hydrazide-acylation. Deconvoluted mass-spectrum (ESI) of GABARAP(ΔG116)–NHNH α-chloroacetyl 1. Expected mass 13707 Da. Deconvoluted mass-spectrum (ESI) of GABARAP(ΔG116)–NHNH methyl-fumarate 2. Expected mass 13743 Da. b. […] The reaction was allowed to proceed for 1 h and was analyzed by SDS-PAGE and Coomassie Blue staining. c. ColabFold-predicted structure of the protein-complex of ATG3 and GABARAP. Side-chain atoms are shown for the predicted LIR motif in ATG3 (90–112). d. Reaction of 2 (15 μM) with ATG3 variants C1, C0, and ΔLIR (15 μM). ATG3 C1 contains only active-site cysteine C264. ATG3 C0 contains no cysteines. ATG3 ΔLIR lacks amino acids 95–111. Reaction was allowed to proceed for 1 h and was analyzed by SDS-PAGE and Coomassie Blue staining. […]
Farnung et al. Supplementary Information and monitored using LC-MS analysis. […]
SUMO-GABARAP/LC3A-Mxe GyrA-His6 fusion after Ni-NTA purification was dialyzed against intein cleavage buffer (25 mM HEPES, 500 mM NaCl, 1 mM EDTA pH 7.2 at 4 °C). […] The solution was allowed to stand at room temperature and monitored using LC-MS analysis. […]
Ubl probes (15 μM) were mixed with E2s (15 μM) in PBS. […] If required, gel bands were quantified by gel densitometry using ImageLab (Bio- […]

**Q.** With “GABARAP(ΔG116)–NHNH methyl-fumarate [compound 2]” as the substance, how does the “Reaction with Ube2K” value read?
**A.** did not react
